Test results from patent US20240059703A1 (AMGEN INC., priority 2021, published 2024).

Each compound was assayed against KRAS G12C (Homo sapiens (Human), UniProt P01116, C118A/G12C) (assay: 2 h coupled exchange assay). Conditions: Avg 2 h Coupled exchange IC50, 2 h compound pre-incubation, SOS-mediated nucleotide exchange.
Format: biochemical
Method: The term “2 h coupled exchange assay” or “20 h coupled exchange assay” as used herein refers to the assay described in the Section entitled “BIOLOGICAL EVALUATION.”

Sequence of KRAS G12C (P01116 other isoform, or with tags, fused parts or gaps G12C/C118A): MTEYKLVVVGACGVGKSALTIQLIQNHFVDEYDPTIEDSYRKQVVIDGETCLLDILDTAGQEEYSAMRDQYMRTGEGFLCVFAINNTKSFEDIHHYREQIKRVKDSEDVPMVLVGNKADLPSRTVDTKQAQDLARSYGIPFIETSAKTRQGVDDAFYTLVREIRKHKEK

IC50 [µM] | SMILES
19.9 | C=CC(=O)N1CC2(CCN(c3nc4c(c(-c5c(C)ccc6cnn(C)c56)c3C#N)CC(C)(C)C4)C2)C1 (single isomer, unassigned) [Example 13-17, (M)-4-(1,6-dimethyl-1H-indazol-7-yl)-6,6-dimethyl-2-(2-(2-propenoyl)-2,6-diazaspiro[3.4]octan-6-yl)-6,7-dihydro-5H-cyclopenta[b]pyridine-3-carbonitrile]
1.8 | C=CC(=O)N1CC2(CCN(c3nc4c(c(-c5ccccc5Cl)c3C#N)CC(C)(C)C4)C2)C1 (single isomer, unassigned) [Example 13-24, (M)-4-(2-chlorophenyl)-6,6-dimethyl-2-(2-(2-propenoyl)-2,6-diazaspiro[3.4]octan-6-yl)-6,7-dihydro-5H-cyclopenta[b]pyridine-3-carbonitrile]
0.337 | C=CC(=O)N1CC2(CCN(c3nc4c(c(-c5ccccc5Cl)c3C#N)CC(C)(C)C4)C2)C1 (single isomer, unassigned) [Example 13-25, (P)-4-(2-chlorophenyl)-6,6-dimethyl-2-(2-(2-propenoyl)-2,6-diazaspiro[3.4]octan-6-yl)-6,7-dihydro-5H-cyclopenta[b]pyridine-3-carbonitrile]
0.266 | C=CC(=O)N1CC2(CCN(c3nc4c(c(-c5ccnn5C)c3C#N)CC[C@H](c3ccnn3C)C4)C2)C1 (single isomer, unassigned) [Example 13-28]
0.217 | C=CC(=O)N1CC2(CCN(c3nc4c(c(-c5ccnn5C)c3C#N)CC[C@@H](c3ccnn3C)C4)C2)C1 (single isomer, unassigned) [Example 13-29]
0.652 | C=CC(=O)N1CC2(CCN(c3nc4c(c(-c5c(C)ccc6cnn(C)c56)c3C#N)C[C@H]3C[C@@H]4C3)[C@H]2C)C1 (single isomer, unassigned) [Example 13-31]
64.9 | C=CC(=O)N1CC2(CCN(c3nc4c(c(-c5c(C)ccc6cnn(C)c56)c3C#N)C[C@H]3C[C@@H]4C3)[C@H]2C)C1 (single isomer, unassigned) [Example 13-32]
0.991 | C=CC(=O)N1CC2(CCN(c3nc4c(c(-c5c(O)ccc6ccccc56)c3C#N)C[C@H]3C[C@@H]4C3)C2)C1 (single isomer, unassigned) [Example 13-36]
31.7 | C=CC(=O)N1CC2(CCN(c3nc4c(c(-c5c(O)ccc6ccccc56)c3C#N)C[C@H]3C[C@@H]4C3)C2)C1 (single isomer, unassigned) [Example 13-37]
0.639 | C=CC(=O)N1CC2(CCN(c3nc4c(c(-c5c(C)cccc5O)c3C#N)C[C@H]3C[C@@H]4C3)C2)C1 (single isomer, unassigned) [Example 13-39]
34.1 | C=CC(=O)N1CC2(CCN(c3nc4c(c(-c5c(C)cccc5O)c3C#N)C[C@H]3C[C@@H]4C3)C2)C1 (single isomer, unassigned) [Example 13-40]
23.3 | C=CC(=O)N1CC2(CCN(c3nc4c(c(-c5cc(O)cc6ccccc56)c3C#N)COC(C)(C)C4)C2)C1 (single isomer, unassigned) [Example 13-42, (M)-4-(3-hydroxy-1-naphthalenyl)-7,7-dimethyl-2-(2-(2-propenoyl)-2,6-diazaspiro[3.4]octan-6-yl)-7,8-dihydro-5H-pyrano[4,3-b]pyridine-3-carbonitrile]
141 | C=CC(=O)N1CC2(CCN(c3nc4c(c(-c5c(C)ccc6cnn(C)c56)c3C#N)COC4(C)C)C2)C1 (single isomer, unassigned) [Example 13-56, (P)-4-(1,6-dimethyl-1H-indazol-7-yl)-,7,7-dimethyl-2-(2-(2-propenoyl)-2,6-diazaspiro[3.4]octan-6-yl)-5,7-dihydrofuro[3,4-b]pyridine-3-carbonitrile]
0.361 | C=CC(=O)N1CC2(CCN(c3nc4c(c(-c5c(C)ccc6cnn(C)c56)c3C#N)COC4(C)C)C2)C1 (single isomer, unassigned) [Example 13-57, (M)-4-(1,6-dimethyl-1H-indazol-7-yl)-7,7-dimethyl-2-(2-(2-propenoyl)-2,6-diazaspiro[3.4]octan-6-yl)-5,7-dihydrofuro[3,4-b]pridine-3-carbonitrile]
32.2 | C=CC(=O)N1CC2(CCN(c3nc4c(c(-c5c(C)ccc6cnn(C)c56)c3C#N)COC(C)(C)C4)C2)C1 (single isomer, unassigned) [Example 13-59, (M)-4-(1,6-dimethyl-1H-indazol-7-yl)-7,7-dimethyl-2-(2-(2-propenoyl)-2,6-diazaspiro[3.4]octan-6-yl)-7,8-dihydro-5H-pyrano[4,3-b]pyridine-3-carbonitrile]
76 | C=CC(=O)N1CC2(CCN(c3nc4c(c(-c5c(O)cccc5Cl)c3C#N)C[C@H]3C[C@@H]4C3)C2)C1 (single isomer, unassigned) [Example 13-66]
0.506 | C=CC(=O)N1CC2(CCN(c3nc4c(c(-c5c(O)cccc5Cl)c3C#N)C[C@H]3C[C@@H]4C3)C2)C1 (single isomer, unassigned) [Example 13-67]
27 | C=CC(=O)N1CC2(CCN(c3nc4c(c(-c5cc(O)cc6ccccc56)c3C#N)CC(C)(C)C4)C2)C1 (single isomer, unassigned) [Example 13-68, (M)-4-(3-hydroxy-1 naphthalenyl)-6,6-dimethyl-2-(2-(2-propenoyl)-2,6-diazaspiro[3.4]octan-6-yl)-6,7-dihydro-5H-cyclopenta[b]pyridine-3-carbonitrile]
19.3 | C=CC(=O)N1CC2(CCN(c3nc4c(c(-c5cc(O)c(F)c6ccccc56)c3C#N)CC[C@H]3C[C@@H]43)C2)C1 (single isomer, unassigned) [Example 13-73]
17 | C=CC(=O)N1CC2(CCN(c3nc4c(c(-c5cc(O)c(F)c6ccccc56)c3C#N)CC[C@H]3C[C@@H]43)C2)C1 (single isomer, unassigned) [Example 13-75]
35.6 | C=CC(=O)N1CC2(CCN(c3nc4c(c(-c5cc(O)c(F)c6ccccc56)c3C#N)COC(C)(C)C4)C2)C1 (single isomer, unassigned) [Example 13-77, (M)-4-(4-fluoro-3-hydroxy-1-naphthalenyl)-7,7-dimethyl-2-(2-(2-propenoyl)-2,6-diazaspiro[3.4]octan-6-yl)-7,8-dihydro-5H-pyrano[4,3-b]pyridine-3-carbonitrile]
0.143 | CN(C)C/C=C/C(=O)N1CC2(CCN(c3nc4c(c(-c5cc(O)cc6ccccc56)c3C#N)CC[C@H]3C[C@@H]43)C2)C1 (single isomer, unassigned) [Example 13-88]

More lines, now with the values behind:

SMILES | IC50 [µM]
C=CC(=O)N1CC2(CCN(c3cc4c(c(-c5c(C)ccc6[nH]ncc56)c3C#N)COCC4)C2)C1 (single isomer, unassigned) [Example 2-99, (M)-8-(5-methyl-1H-indazol-4-yl)-6-(2-(2-propenoyl)-2,6-diazaspiro[3.4]octan-6-yl)-3,4-dihydro-1H-2-benzopyran-7-carbonitrile] | 4.39
C=CC(=O)N1CC2(CCN(c3nc4c(c(-c5c(C)c(Cl)cc6[nH]ncc56)c3Cl)COC(C)(C)C4)C2)C1 (single isomer, unassigned) [Example 2-108, (M)-1-(6-(3-chloro-4-(6-chloro-5-methyl-1H-indazol-4-yl)-7,7-dimethyl-7,8-dihydro-5H-pyrano[4,3-b]pyridin-2-yl)-2,6-diazaspiro[3.4]octan-2-yl)-2-propen-1-one] | 14.1
C=CC(=O)N1CC2(CCN(c3nc4c(c(-c5cc(Cl)cc6ccn(C)c56)c3C#N)COC(C)(C)C4)C2)C1 (single isomer, unassigned) [Example 12-9, (P)-4-(5-chloro-1-methyl-1H-indol-7-yl)-7,7-dimethyl-2-(2-(2-propenoyl)-2,6-diazaspiro[3.4]octan-6-yl)-7,8-dihydro-5H-pyrano[4,3-b]pyridine-3-carbonitrile] | 0.443
C=CC(=O)N1CC2(CCN(c3nc4c(c(-c5cc(Cl)cc6ccn(C)c56)c3C#N)COC(C)(C)C4)C2)C1 (single isomer, unassigned) [Example 12-10, (M)-4-(5-chloro-1-methyl-1H-indol-7-yl)-7,7-dimethyl-2-(2-(2-propenoyl)-2,6-diazaspiro[3.4]octan-6-yl)-7,8-dihydro-5H-pyrano[4,3-b]pyridine-3-carbonitrile] | 7.42
C=CC(=O)N1CC2(CCN(c3nc4c(c(-c5c(C)c(Cl)cc6cnn(C)c56)c3C)CCN(C(C)C)C4)C2)C1 (single isomer, unassigned) [Example 12-23, (P)-1-(6-(4-(5-chloro-1,6-dimethyl-1H-indazol-7-yl)-3-methyl-7-(2-propanyl)-5,6,7,8-tetrahydro-1,7-naphthyridin-2-yl)-2,6-diazaspiro[3.4]octan-2-yl)-2-propen-1-one] | 18.7
C=CC(=O)N1CC2(CCN(c3nc4c(c(-c5c(C)c(Cl)cc6cnn(C)c56)c3C)CCN(C(C)C)C4)C2)C1 (single isomer, unassigned) [Example 12-24, (M)-1-(6-(4-(5-chloro-1,6-dimethyl-1H-indazol-7-yl)-3-methyl-7-(2-propanyl)-5,6,7,8-tetrahydro-1,7-naphthyridin-2-yl)-2,6-diazaspiro[3.4]octan-2-yl)-2-propen-1-one] | 0.05
C=CC(=O)N1CC2(CCN(c3nc4c(c(-c5c(F)cccc5[C@H](C)O)c3C#N)C[C@H]3C[C@@H]4C3(C)C)C2)C1 (single isomer, unassigned) [Example 12-36] | 0.441
C=CC(=O)N1CC2(CCN(c3nc4c(c(-c5c(F)cccc5[C@@H](C)O)c3C#N)C[C@H]3C[C@@H]4C3(C)C)C2)C1 (single isomer, unassigned) [Example 12-37] | 1.44
C=CC(=O)N1CC2(CCN(c3nc4c(c(-c5cc(O)cc6nccnc56)c3C#N)C[C@H]3C[C@@H]4C3(C)C)C2)C1 (single isomer, unassigned) [Example 12-39] | 3.9
C=CC(=O)N1CC2(CCN(c3nc4c(c(-c5cc(O)cc(Cl)c5C)c3C)COC(C)(C)C4)C2)C1 (single isomer, unassigned) [Example 12-44, (P)-1-(6-(4-(3-chloro-5-hydroxy-2-methylphenyl)-3,7,7-trimethyl-7,8-dihydro-5H-pyrano[4,3-b]pyridin-2-yl)-2,6-diazaspiro[3.4]octan-2-yl)prop-2-en-1-one] | 11
